System: 885724-159-R-J1-PDC KRAS PDC multicell spheroid viability
Experiment: Anticancer human tumor 885724-159-R-J1-PDC patient-derived pancreatic adenocarcinoma cell line growth inhibition [KRAS2]
Settings: for IC50: curve of first compound; for viability, T/C: stronger effect = lower value
Outline: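 Combination screen of spheroid viability in tumor-cell co-cultures with endothelial (HUVEC) and mesenchymal stem cell stroma. Each agent was tested in half-log dilutions, topping at clinical Cmax or at 10 microM without a known Cmax.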

[1] = second compound 0.1 µM, first compound 0.0316 µM
[2] = second compound 0.1 µM, first compound 0.1 µM
[3] = second compound 0.1 µM, first compound 0.316 µM
[4] = second compound 0.1 µM, first compound 1 µM
[5] = second compound 0.1 µM, first compound 3.16 µM
[6] = second compound 0.1 µM, first compound 10 µM
[7] = second compound 0.316 µM, first compound 0.0316 µM
[8] = second compound 0.316 µM, first compound 0.1 µM
[9] = second compound 0.316 µM, first compound 0.316 µM
[10] = second compound 0.316 µM, first compound 1 µM
[11] = second compound 0.316 µM, first compound 3.16 µM
[12] = second compound 0.316 µM, first compound 10 µM
[13] = second compound 1 µM, first compound 0.0316 µM
[14] = second compound 1 µM, first compound 0.1 µM
[15] = second compound 1 µM, first compound 0.316 µM
[16] = second compound 1 µM, first compound 1 µM
[17] = second compound 1 µM, first compound 3.16 µM
[18] = second compound 1 µM, first compound 10 µM
[19] = second compound 3.16 µM, first compound 0.0316 µM
[20] = second compound 3.16 µM, first compound 0.1 µM
[21] = second compound 3.16 µM, first compound 0.316 µM
[22] = second compound 3.16 µM, first compound 1 µM
[23] = second compound 3.16 µM, first compound 3.16 µM
[24] = second compound 3.16 µM, first compound 10 µM
[25] = second compound 10 µM, first compound 0.0316 µM
[26] = second compound 10 µM, first compound 0.1 µM
[27] = second compound 10 µM, first compound 0.316 µM
[28] = second compound 10 µM, first compound 1 µM
[29] = second compound 10 µM, first compound 3.16 µM
[30] = second compound 10 µM, first compound 10 µM
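Note: spheroids exposed to agents for 7 days before readout.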

| Compound | IC50 (second compound 0.1 µM) | IC50 (second compound 0.316 µM) | IC50 (second compound 1 µM) | IC50 (second compound 3.16 µM) | IC50 (second compound 10 µM) | viability, T/C [1] | viability, T/C [2] | viability, T/C [3] | viability, T/C [4] | viability, T/C [5] | viability, T/C [6] | viability, T/C [7] | viability, T/C [8] | viability, T/C [9] | viability, T/C [10] | viability, T/C [11] | viability, T/C [12] | viability, T/C [13] | viability, T/C [14] | viability, T/C [15] | further results |
| --- | --- | --- | --- | --- | --- | --- | --- | --- | --- | --- | --- | --- | --- | --- | --- | --- | --- | --- | --- | --- | --- |
| COC(=O)c1ccc2c(C(=Nc3ccc(N(C)C(=O)CN4CCN(C)CC4)cc3)c3ccccc3)c(O)[nH]c2c1 + CNCc1ccccc1-c1csc(C(C)Nc2nc(C)nc3cc(OC)c(OC)cc23)c1 | 2.55 µM | 1.86 µM | 2.17 µM | < 0.0316 µM | < 0.0316 µM | 111% | 107% | 117% | 110% | 36.2% | 1.52% | 108% | 110% | 107% | 102% | 6.06% | 0.58% | 106% | 115% | 107% | viability, T/C [16]: 96.7%; viability, T/C [17]: 27.2%; viability, T/C [18]: 1.19%; viability, T/C [19]: 1.59%; viability, T/C [20]: 4.08%; viability, T/C [21]: 1.18%; viability, T/C [22]: 0.58%; viability, T/C [23]: 1.26%; viability, T/C [24]: 0.34%; viability, T/C [25]: 0.26%; viability, T/C [26]: 0.2%; viability, T/C [27]: 0.15%; viability, T/C [28]: 0.33%; viability, T/C [29]: 0.38%; viability, T/C [30]: 0.48% |
| O=C(c1cc(Cc2n[nH]c(=O)c3ccccc23)ccc1F)N1CCN(C(=O)C2CC2)CC1 + CNCc1ccccc1-c1csc(C(C)Nc2nc(C)nc3cc(OC)c(OC)cc23)c1 | > 10 µM | > 10 µM | > 10 µM | < 0.0316 µM | < 0.0316 µM | 110% | 112% | 98.4% | 101% | 96.2% | 84.7% | 107% | 107% | 103% | 96.4% | 94.6% | 81.7% | 105% | 112% | 104% | viability, T/C [16]: 95.7%; viability, T/C [17]: 91.9%; viability, T/C [18]: 81.8%; viability, T/C [19]: 1.34%; viability, T/C [20]: 1.56%; viability, T/C [21]: 0.78%; viability, T/C [22]: 0.88%; viability, T/C [23]: 1%; viability, T/C [24]: 1.09%; viability, T/C [25]: 0.23%; viability, T/C [26]: 0.26%; viability, T/C [27]: 0.21%; viability, T/C [28]: 0.28%; viability, T/C [29]: 0.28%; viability, T/C [30]: 0.68% |
